Measurements published in article PMC9693455, “Synthesis of Tetrasubstituted Phosphorus Analogs of Aspartic Acid as Antiproliferative Agents” (Molecules, 2022).

What was measured:
[1] = tested on: SKOV3 (human ovarian carcinoma) cells; test: In vitro cytotoxicity (antiproliferative activity), CCK-8 assay, SKOV3; format: cell-based; conditions: for IC50: Homo sapiens, SK-OV-3, 48 h exposure, CCK-8
Method: (§1) In vitro cytotoxicity of the phosphorated aspartic acid derivatives was evaluated by testing their antiproliferative activities against several human cancer cell lines. Cell counting kit (CCK-8) assay was used for the evaluation of growth inhibition. […] In addition, trisubstituted aminophosphonate 9a (Imine precursor, R^1 = H, R^2 = P(O)(OMe)2) and tetrasubstituted aminophosphonate 18 (R^1 = Me, R^2 = P(O)(OMe)2) are used as templates in order to evaluate the effect of the substituents (Table 1).
(§2) Human epithelial lung carcinoma cells (A549) (ATCC® CCL-185™, ATCC, Manassas, VA, USA) were grown in Kaighn’s Modification of Ham’s F-12 Medium (ATCC® 30-2004™, ATCC, Manassas, VA, USA) and lung fibroblast cells (MRC5) (ATCC® CCL-171™, ATCC, Manassas, VA, USA) were grown in Eagle’s Minimum Essential Medium (EMEM, ATCC® 30-2003™, ATCC, Manassas, VA, USA). Epithelial ovary adenocarcinoma cells (SKOV3) (ATCC® HTB-77™, ATCC, Manassas, VA, USA) were grown in McCoy’s 5A medium (ATCC® 30-2007™, ATCC, Manassas, VA, USA). All of them were supplemented with 10% of fetal bovine serum (FBS) (Sigma-Aldrich, Madrid, Spain) and with 1% of NORMOCIN solution (Thermo Fisher, Waltham, MA, USA). Cells were incubated at 37 °C and 5% CO2 atmosphere, and were split every 3–4 days to maintain monolayer coverage. For the cytotoxicity experiments, the A549 and SKOV3 cells were seeded in 96-well plates at a density of 2.5–3 × 10^3 cells per well and incubated overnight to achieve 70% of confluence at the time of exposition to the cytotoxic compound.
(§3) Cells were exposed to different concentrations of the cytotoxic compounds and were incubated for 48 h. Then, 10 µL of cell counting kit-8 was added into each well for an additional two hours’ incubation at 37 °C. The absorbance of each well was determined by an Automatic Elisa Reader System (Thermo Scientific Multiskan FC Automatic Elisa Reader System, Thermo Scientific, Shanghai, China) at 450 nm wavelength.

[2] = tested on: MRC5 lung fibroblast cells; test: Selective toxicity, CCK-8 assay, non-malignant MRC5 lung fibroblasts; format: cell-based; conditions: for IC50: Homo sapiens, non-malignant MRC5 lung fibroblasts, 48 h exposure, CCK-8
Method: as §1, §2, §3

[3] = tested on: A549 (carcinomic human alveolar basal epithelial) cells; test: In vitro cytotoxicity (antiproliferative activity), CCK-8 assay, A549; format: cell-based; conditions: for IC50: 48 h exposure, CCK-8
Method: as §1, §2, §3

Row | Compound | melting point [°C] | IC50 [1] [µM] | IC50 [2] [µM] | IC50 ([3]; Homo sapiens, A549, 48 h) [µM] | cytotoxicity against SKOV3 cell line (in words) [1] | toxicity toward MRC5 non-malignant cells (in words) [2] | IC50 [3] [µM] | IC50 ([3]; Homo sapiens) [µM] | cytotoxicity against A549 cell line (in words) [3]
1 | CCOC(=O)CC(NS(=O)(=O)c1ccc(C)cc1)(c1ccccc1)P(=O)(OC)OC (stereo not shown) [7a, Ethyl 3-(dimethoxyphosphoryl)-3-((4-methylphenyl)sulfonamido)-3-phenylpropanoate] | 98 to 99 | > 50 | > 50 | 2.66 ± 0.26 | – | – | – | – | –
2 | CCOC(=O)CC(NS(=O)(=O)c1ccc(C)cc1)(c1ccc(C)cc1)P(=O)(OC)OC (stereo not shown) [7b, Ethyl 3-(dimethoxyphosphoryl)-3-((4-methylphenyl)sulfonamido)-3-(p-tolyl)propanoate] | 117 to 118 | > 50 | 29.6 ± 2.98 | 0.34 ± 0.04 | no activity | some toxicity | – | – | –
3 | CCOC(=O)CC(NS(=O)(=O)c1ccc(C)cc1)(c1cccc(C)c1)P(=O)(OC)OC (stereo not shown) [7c, Ethyl 3-(dimethoxyphosphoryl)-3-((4-methylphenyl)sulfonamido)-3-(m-tolyl)propanoate] | 103 to 104 | > 50 | > 50 | 2 ± 0.52 | no activity | – | – | – | –
4 | CCOC(=O)CC(NS(=O)(=O)c1ccc(C)cc1)(c1ccc(SC(Cl)(Cl)Cl)cc1)P(=O)(OC)OC (stereo not shown) [7d, Ethyl 3-(dimethoxyphosphoryl)-3-((4-methylphenyl)sulfonamido)-3-(4-((trichloromethyl)thio)phenyl)propanoate] | 123 to 124 | 6.43 ± 0.64 | 2.47 ± 0.3 | 4.41 ± 0.29 | – | – | – | – | –
5 | CCOC(=O)CC(NS(=O)(=O)c1ccc(C)cc1)(c1ccc(Br)cc1)P(=O)(OC)OC (stereo not shown) [7e, Ethyl 3-(4-bromophenyl)-3-(dimethoxyphosphoryl)-3-((4-methylphenyl)sulfonamido)propanoate] | 138 to 139 | > 50 | > 50 | 1.08 ± 0.09 | – | – | – | – | –
6 | CCOC(=O)CC(NS(=O)(=O)c1ccc(C)cc1)(c1ccc(Cl)cc1)P(=O)(OC)OC (stereo not shown) [7f, Ethyl 3-(4-chlorophenyl)-3-(dimethoxyphosphoryl)-3-((4-methylphenyl)sulfonamido)propanoate] | 133 to 134 | 24.1 ± 1.45 | > 50 | 3.09 ± 0.14 | – | – | – | – | –
7 | CCOC(=O)CC(NS(=O)(=O)c1ccc(C)cc1)(c1cccc(Cl)c1)P(=O)(OC)OC (stereo not shown) [7g, Ethyl 3-(3-chlorophenyl)-3-(dimethoxyphosphoryl)-3-((4-methylphenyl)sulfonamido)propanoate] | 88 to 89 | > 50 | 38.1 ± 1.61 | 2.96 ± 0.34 | – | toxic against the healthy cells | – | – | –
8 | CCOC(=O)CC(NS(=O)(=O)c1ccc(C)cc1)(c1ccc(Cl)c(Cl)c1)P(=O)(OC)OC (stereo not shown) [7h, Ethyl 3-(3,4-dichlorophenyl)-3-(dimethoxyphosphoryl)-3-((4-methylphenyl)sulfonamido)propanoate] | 109 to 110 | 6.94 ± 0.63 | 11.3 ± 1.16 | 1.05 ± 0.42 | – | – | – | – | –
9 | CCOC(=O)CC(NS(=O)(=O)c1ccc(C)cc1)(c1ccc(OC)c(Cl)c1)P(=O)(OC)OC (stereo not shown) [7i, Ethyl 3-(3-chloro-4-methoxyphenyl)-3-(dimethoxyphosphoryl)-3-((4-methylphenyl)sulfonamido)propanoate] | 153 to 154 | > 50 | > 50 | 1.44 ± 0.15 | – | – | – | – | –
10 | CCOC(=O)CC(NS(=O)(=O)c1ccc(C)cc1)(c1ccc(F)cc1)P(=O)(OC)OC (stereo not shown) [7j, Ethyl 3-(dimethoxyphosphoryl)-3-(4-fluorophenyl)-3-((4-methylphenyl)sulfonamido)propanoate] | 111 to 112 | > 50 | > 50 | 7.15 ± 0.24 | – | – | – | – | –
11 | CCOC(=O)CC(NS(=O)(=O)c1ccc(C)cc1)(c1cccc(F)c1)P(=O)(OC)OC (stereo not shown) [7k, Ethyl 3-(dimethoxyphosphoryl)-3-(3-fluorophenyl)-3-((4-methylphenyl)sulfonamido)propanoate] | 111 to 112 | > 50 | > 50 | 0.34 | – | – | 0.59 ± 0.09 | – | –
12 | CCOC(=O)CC(NS(=O)(=O)c1ccc(C)cc1)(c1ccccc1F)P(=O)(OC)OC (stereo not shown) [7l, Ethyl 3-(dimethoxyphosphoryl)-3-(2-fluorophenyl)-3-((4-methylphenyl)sulfonamido)propanoate] | 140 to 141 | > 50 | > 50 | 0.9 ± 0.12 | – | – | – | – | –
13 | CCOC(=O)CC(NS(=O)(=O)c1ccc(C)cc1)(c1c(F)c(F)c(F)c(F)c1F)P(=O)(OC)OC (stereo not shown) [7o, Ethyl 3-(dimethoxyphosphoryl)-3-((4-methylphenyl)sulfonamido)-3-(perfluorophenyl)propanoate] | – | 20.5 ± 2.75 | > 50 | 3.65 ± 0.21 | – | – | – | – | –
14 | COP(=O)(OC)C(NS(=O)(=O)c1ccc(C)cc1)c1ccccc1 (stereo not shown) [9a] | – | > 50 | > 50 | 17.6 ± 1.3 | – | – | – | – | –
15 | COP(=O)(OC)C(CC(=O)OCc1ccccc1)(NS(=O)(=O)c1ccc(C)cc1)c1cccc(F)c1 (stereo not shown) [13a, Benzyl 3-(dimethoxyphosphoryl)-3-(3-fluorophenyl)-3-((4-methylphenyl)sulfonamido)propanoate] | 78 to 79 | > 50 | – | 12.8 ± 2.38 | no toxicity | – | – | – | –
16 | CCOC(=O)C[C@](NS(=O)(=O)c1ccc(C)cc1)(c1cccc(F)c1)P(=O)(OC)OC [(R)-7k] | – | – | – | 1.61 ± 0.2 | – | – | – | – | –
17 | CCOC(=O)C[C@@](NS(=O)(=O)c1ccc(C)cc1)(c1cccc(F)c1)P(=O)(OC)OC [(S)-7k] | – | – | – | 1.56 ± 0.39 | – | – | – | – | –
18 | COc1cccc2c1C(=O)c1c(O)c3c(c(O)c1C2=O)C[C@@](O)(C(=O)CO)C[C@@H]3O[C@H]1C[C@H](N)[C@H](O)[C@H](C)O1 [Doxorubicin, reference compound] | – | – | – | – | – | – | – | < 0.1 | –
19 | CCOC(=O)CC(NS(=O)(=O)c1ccc(C)cc1)c1ccccc1 (stereo not shown) [compound 5, Ethyl 3-((4-methylphenyl)sulfonamido)-3-phenylpropanoate] | – | > 50 | > 50 | – | – | – | – | 18.7 ± 2.16 | –
20 | CCOC(=O)CC(NS(=O)(=O)c1ccc(C)cc1)(C(=O)OCC)c1ccccc1 (stereo not shown) [compound 6, Diethyl 2-((4-methylphenyl)sulfonamido)-2-phenylsuccinate] | – | > 50 | > 50 | – | – | – | – | 14.2 ± 0.41 | –
21 | COC(=O)CC(NS(=O)(=O)c1ccc(C)cc1)(c1cccc(F)c1)P(=O)(OC)OC (stereo not shown) [compound 12, Methyl 3-(dimethoxyphosphoryl)-3-(3-fluorophenyl)-3-((4-methylphenyl)sulfonamido)propanoate] | 115 to 116 | > 50 | – | 24.1 ± 4.01 | no toxicity | – | – | – | –
22 | COP(=O)(OC)C(CC(=O)O)(NS(=O)(=O)c1ccc(C)cc1)c1ccccc1 (stereo not shown) [compound 14, 3-(Dimethoxyphosphoryl)-3-((4-methylphenyl)sulfonamido)-3-phenylpropanoic acid] | – | > 50 | > 50 | 20.6 ± 1.05 | – | – | – | – | –
23 | COP(=O)(OC)C(C)(NS(=O)(=O)c1ccc(C)cc1)c1ccccc1 (stereo not shown) [compound 18, Dimethyl (1-((4-methylphenyl)sulfonamido)-1-phenylethyl)phosphonate] | – | > 50 | – | > 50 | – | – | – | – | no cytotoxicity
